Reference: PubChem BioAssay AID192 (DTP/NCI, 2004)
Values joined by “and” are separate entries in the source; they are usually repeats but may differ in a detail not shown here. Identical values can stand only once. Inconclusive results and toxic doses are left out. How the source made its calls: active means survival T/C of 150% or more; inactive means T/C below 125% in these data.

Test system: BDF1 mice, B16 melanoma ip, median survival T/C
Experiment: NCI In Vivo Anticancer Drug Screen. Data for tumor model B16 Melanoma (intraperitoneal) in B6D2F1 (BDF1) mice
Conditions: endpoint: median survival time, higher = longer survival
Summary of the method: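 Survival or tumor size is measured after treatment of tumor-bearing mice and normalised to the vehicle-treated control group.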

[1] = dose: 25.0 mg/kg/injection, schedule: Q01DX009 (ip), vehicle: saline with Tween-80
[2] = dose: 50.0 mg/kg/injection, schedule: Q01DX009 (ip), vehicle: saline with Tween-80
[3] = dose: 100.0 mg/kg/injection, schedule: Q01DX009 (ip), vehicle: saline with Tween-80
[4] = dose: 12.5 mg/kg/injection, schedule: Q01DX009 (ip), vehicle: saline
[5] = dose: 25.0 mg/kg/injection, schedule: Q01DX009 (ip), vehicle: saline
[6] = dose: 50.0 mg/kg/injection, schedule: Q01DX009 (ip), vehicle: saline
[7] = dose: 12.5 mg/kg/injection, schedule: Q01DX009 (ip), vehicle: saline with Tween-80
[8] = dose: 0.5 mg/kg/injection, schedule: Q01DX009 (ip), vehicle: saline
[9] = dose: 1.0 mg/kg/injection, schedule: Q01DX009 (ip), vehicle: saline
[10] = dose: 2.0 mg/kg/injection, schedule: Q01DX009 (ip), vehicle: saline
[11] = dose: 6.25 mg/kg/injection, schedule: Q01DX009 (ip), vehicle: Klucel (hydroxypropylcellulose) (HPC)
[12] = dose: 6.25 mg/kg/injection, schedule: Q01DX009 (ip), vehicle: saline with Tween-80

Measured: T/C

CCCCCCNC(=O)Nc1cccc(Cl)c1C
inactive: dose: 100.0 mg/kg/injection, schedule: Q04DX003 (ip), vehicle: Klucel (hydroxypropylcellulose) (HPC) 92 % of control | dose: 200.0 mg/kg/injection, schedule: Q04DX003 (ip), vehicle: Klucel (hydroxypropylcellulose) (HPC) 90 % of control | dose: 400.0 mg/kg/injection, schedule: Q04DX003 (ip), vehicle: Klucel (hydroxypropylcellulose) (HPC) 87 % of control

Cc1nnc(NC(=O)CCl)s1
inactive: [1] 97 % of control | [2] 105 % of control | [3] 97 % of control

COC(=O)[C@@H]1c2cc3c(c(O)c2[C@@H](OC)C[C@@]1(C)O)C(=O)c1c(O)cc2c(c1C3=O)OC1O[C@@]2(C)[C@H](O)[C@@H](N(C)C)[C@@H]1O
active: [4] 155 % of control and 158 % of control | [5] 165 % of control and 178 % of control | [6] 184 % of control and 186 % of control | dose: 200.0 mg/kg/injection, schedule: Q01DX009 (ip), vehicle: saline 153 % of control

CCC(=O)[O][Bi]([c]1ccccc1)[c]1ccccc1
inactive: dose: 3.0 mg/kg/injection, schedule: Q01DX009 (ip), vehicle: Klucel (hydroxypropylcellulose) (HPC) 90 % of control | dose: 6.0 mg/kg/injection, schedule: Q01DX009 (ip), vehicle: Klucel (hydroxypropylcellulose) (HPC) 99 % of control | dose: 12.0 mg/kg/injection, schedule: Q01DX009 (ip), vehicle: Klucel (hydroxypropylcellulose) (HPC) 94 % of control | dose: 24.0 mg/kg/injection, schedule: Q01DX009 (ip), vehicle: Klucel (hydroxypropylcellulose) (HPC) 91 % of control

CCOC(=O)C(=CN1CCCCC1)C(=O)OCC
inactive: [3] 99 % of control | dose: 100.0 mg/kg/injection, schedule: Q04DX003 (ip), vehicle: saline with Tween-80 95 % of control | dose: 200.0 mg/kg/injection, schedule: Q01DX009 (ip), vehicle: saline with Tween-80 100 % of control | dose: 200.0 mg/kg/injection, schedule: Q04DX003 (ip), vehicle: saline with Tween-80 97 % of control | dose: 400.0 mg/kg/injection, schedule: Q04DX003 (ip), vehicle: saline with Tween-80 95 % of control

O=C(CCl)Nc1nccs1
inactive: [7] 103 % of control | [1] 100 % of control | [2] 93 % of control | [3] 87 % of control

CN1C(=O)CCS(=O)(=O)C1c1ccc(Cl)cc1 (stereo not given)
inactive: dose: 0.13 mg/kg/injection, schedule: Q01DX009 (ip), vehicle: saline 109 % of control | dose: 0.25 mg/kg/injection, schedule: Q01DX009 (ip), vehicle: saline 101 % of control | dose: 0.38 mg/kg/injection, schedule: Q01DX009 (ip), vehicle: saline 95 % of control | dose: 0.39 mg/kg/injection, schedule: Q01DX009 (ip), vehicle: Klucel (hydroxypropylcellulose) (HPC) 100 % of control | [8] 111 % of control | dose: 0.75 mg/kg/injection, schedule: Q01DX009 (ip), vehicle: saline 98 % of control | [9] 115 % of control | dose: 1.5 mg/kg/injection, schedule: Q01DX009 (ip), vehicle: saline 101 % of control | dose: 1.56 mg/kg/injection, schedule: Q01DX009 (ip), vehicle: Klucel (hydroxypropylcellulose) (HPC) 109 % of control | [10] 104 % of control | dose: 3.0 mg/kg/injection, schedule: Q01DX009 (ip), vehicle: saline 104 % of control | dose: 3.12 mg/kg/injection, schedule: Q01DX009 (ip), vehicle: Klucel (hydroxypropylcellulose) (HPC) 100 % of control | [11] 102 % of control

CCOC(=O)c1cnc(NN)nc1Nc1cc(Cl)cc(Cl)c1
inactive: [12] 97 % of control | [7] 101 % of control | [1] 91 % of control

O=P1(NCCCl)OCCCN1CCCl (stereo not given)
inactive: [4] 109 % of control | [5] 103 % of control and 111 % of control and 119 % of control | dose: 25.0 mg/kg/injection, schedule: Q01DX009 (ip), vehicle: water 104 % of control and 121 % of control | dose: 25.0 mg/kg/injection, schedule: Q02DX009 (ip), vehicle: saline 100 % of control and 107 % of control | dose: 25.0 mg/kg/injection, schedule: Q02DX009 (ip), vehicle: water 114 % of control | [6] 90 % of control and 111 % of control and 116 % of control | dose: 50.0 mg/kg/injection, schedule: Q02DX009 (ip), vehicle: water 124 % of control | dose: 200.0 mg/kg/injection, schedule: Q02DX009 (ip), vehicle: water 122 % of control
active: dose: 100.0 mg/kg/injection, schedule: Q01DX009 (ip), vehicle: water 169 % of control

C1CN1P1(N2CC2)=NP(N2CC2)(N2CC2)=NP(N2CC2)(N2CC2)=NP(N2CC2)(N2CC2)=N1
inactive: [9] 105 % of control | dose: 1.0 mg/kg/injection, schedule: Q02DX009 (ip), vehicle: saline 88 % of control | [10] 116 % of control | dose: 2.0 mg/kg/injection, schedule: Q02DX009 (ip), vehicle: saline 95 % of control and 105 % of control | dose: 4.0 mg/kg/injection, schedule: Q01DX009 (ip), vehicle: saline 120 % of control | dose: 4.0 mg/kg/injection, schedule: Q02DX009 (ip), vehicle: saline 87 % of control and 90 % of control | dose: 8.0 mg/kg/injection, schedule: Q01DX009 (ip), vehicle: saline 108 % of control | dose: 8.0 mg/kg/injection, schedule: Q02DX009 (ip), vehicle: saline 100 % of control | dose: 16.0 mg/kg/injection, schedule: Q01DX009 (ip), vehicle: saline 93 % of control | dose: 16.0 mg/kg/injection, schedule: Q02DX009 (ip), vehicle: saline 98 % of control and 100 % of control | dose: 32.0 mg/kg/injection, schedule: Q01DX009 (ip), vehicle: saline 97 % of control | dose: 32.0 mg/kg/injection, schedule: Q02DX009 (ip), vehicle: saline 87 % of control and 100 % of control | dose: 64.0 mg/kg/injection, schedule: Q01DX009 (ip), vehicle: saline 108 % of control | dose: 64.0 mg/kg/injection, schedule: Q02DX009 (ip), vehicle: saline 87 % of control and 94 % of control

O=Cc1c(O)c2ccccc2[nH]c1=O
inactive: [1] 106 % of control and 120 % of control | [2] 102 % of control and 107 % of control | [3] 122 % of control

O=C1c2ccccc2C(=O)C(Cl)C1Cl (stereo not given)
inactive: dose: 0.19 mg/kg/injection, schedule: Q01DX009 (ip), vehicle: saline with Tween-80 94 % of control | dose: 0.39 mg/kg/injection, schedule: Q01DX009 (ip), vehicle: saline with Tween-80 94 % of control | dose: 5.0 mg/kg/injection, schedule: Q01DX009 (ip), vehicle: saline 86 % of control

COc1cc2c(c(OC)c1OC)-c1cc3c(cc1[C@@H](OC(C)=O)[C@@H]1COC(=O)[C@H]1C2)OCO3
inactive: dose: 1.25 mg/kg/injection, schedule: Q01DX009 (ip), vehicle: Klucel (hydroxypropylcellulose) (HPC) 104 % of control | dose: 2.5 mg/kg/injection, schedule: Q01DX009 (ip), vehicle: Klucel (hydroxypropylcellulose) (HPC) 94 % of control | dose: 5.0 mg/kg/injection, schedule: Q01DX009 (ip), vehicle: Klucel (hydroxypropylcellulose) (HPC) 104 % of control | dose: 10.0 mg/kg/injection, schedule: Q01DX009 (ip), vehicle: Klucel (hydroxypropylcellulose) (HPC) 102 % of control

C#CC1(OCC(CCl)OC(N)=O)CCCCC1 (stereo not given)
inactive: [1] 87 % of control | [3] 104 % of control

COC(C(=O)C(O)C(C)O)C1Cc2cc3cc(OC4CC(OC(C)=O)C(OC5CC(O)C(OC)C(C)O5)C(C)O4)cc(O)c3c(O)c2C(=O)C1OC1CC(OC2CC(OC3CC(C)(O)C(OC(=O)C(C)C)C(C)O3)C(O)C(C)O2)C(O)C(C)O1 (stereo not given)
active: dose: 0.25 mg/kg/injection, schedule: Q01DX009 (ip), vehicle: saline with Tween-80 158 % of control | [8] 154 % of control and 170 % of control | [9] 173 % of control and 183 % of control | [10] 173 % of control and 178 % of control

C=CCOCC(O)CN(C)CCCC (stereo not given)
inactive: dose: 50.0 mg/kg/injection, schedule: Q04DX003 (ip), vehicle: saline 108 % of control | dose: 100.0 mg/kg/injection, schedule: Q04DX003 (ip), vehicle: saline 108 % of control

O=C(NC1CCc2ccccc21)c1ccccc1 (stereo not given)
inactive: [12] 100 % of control | [7] 92 % of control | [1] 91 % of control and 95 % of control | [3] 90 % of control

CC(=O)NC(C=O)C(O)C(O)C(O)C(=O)O (stereo not given) (tested in a mixture with another compound)
inactive: [11] 100 % of control | dose: 12.5 mg/kg/injection, schedule: Q01DX009 (ip), vehicle: Klucel (hydroxypropylcellulose) (HPC) 107 % of control | dose: 25.0 mg/kg/injection, schedule: Q01DX009 (ip), vehicle: Klucel (hydroxypropylcellulose) (HPC) 98 % of control

COc1ccc(-c2c(N)nc(=S)[nH]c2C(=O)O)cc1
inactive: dose: 50.0 mg/kg/injection, schedule: Q01DX009 (ip), vehicle: Klucel (hydroxypropylcellulose) (HPC) 94 % of control | dose: 100.0 mg/kg/injection, schedule: Q01DX009 (ip), vehicle: Klucel (hydroxypropylcellulose) (HPC) 105 % of control | dose: 200.0 mg/kg/injection, schedule: Q01DX009 (ip), vehicle: Klucel (hydroxypropylcellulose) (HPC) 94 % of control
